# Measurements: patent publication US20190269596A1, “COSMETIC USE AND METHOD FOR IMPROVING PHYSIOLOGICAL FUNCTIONS OF THE SKIN BY INCREASING THE EXPRESSION OF UBIAD1” (ISP Investments LLC, priority 2016, published 2019)
# Where no end group is shown, it is not given here.
# How the values were obtained:
# Assay type in all cases: cell-based, human
# Ubiad1 [1] = experiment: qPCR of Ubiad1 mRNA expression in keratinocytes; conditions: skin keratinocytes, 1 μM (1%) Ubiad1 inducer peptide
# Protocol: (§1) Normal human epithelial keratinocytes were isolated from skin obtained from plastic surgery of healthy females who had given written informed consent. Keratinocytes were cultured in keratinocyte serum free medium, with provided human recombinant epidermal growth factor and bovine pituitary extract (Gibco, Auckland, NZ), and 0.1 mg/ml Primocin™ (Invivogen, San Diego, Calif., USA).
# Total RNA was extracted using mirVana miRNA isolation kit according to the manufacturer's instructions (Ambion, Austin, Tex., USA). Total RNA was reverse transcribed with the high capacity cDNA reverse transcription kit (Applied Biosystems, Branchburg, N.J., USA). Real-time polymerase chain reaction was performed according to the Taqman method, using the TaqMan Universal PCR Master Mix (Applied Biosystems) with the StepOnePlus Real-time PCR System (Applied Biosystems). Relative expression levels of each target gene were calculated according to the delta-delta-CT method.
# Ubiad1 [2] = experiment: Immunoblotting of Ubiad1 in keratinocytes; conditions: skin keratinocytes, 1 μM (1%) Ubiad1 inducer peptide
# Protocol: as §1
# Keratinocytes were lysed in RIPA buffer (Thermo Scientific, Rockford, Ill., USA), containing protease inhibitor cocktail and EDTA (Thermo Scientific). The protein concentration was determined using the BCA Protein Assay Kit (Thermo Scientific) and equal amounts of total protein were loaded on a 4 to 12% NuPAGE Bis-Tris Gel (Invitrogen) and transferred onto a nitrocellulose membranes using the iBlot dry blotting system (Invitrogen). Non specific binding sites were blocked, and membranes were then labeled with appropriate antibodies and developed using the SuperSignal West Femto Maximum Sensitivity Substrate kit (Thermo Scientific).
# keratinocytes [3] = experiment: Transmission electron microscopy of peptide-treated keratinocytes; conditions: cultured keratinocytes, peptide 1 tLM, 48 hours
# Protocol: as §1
# Cultured keratinocytes, treated with the peptide at 1 tLM concentration for 48 hours were fixed in Karnovsky's solution (Emsdiasum, Hatfield, Pa., USA) for 1 h at room temperature, and left for 12 h at 4° C. Cells were then carefully scrapped off the petridish, pelleted with a brief centrifugation, and washed with 0.1 M sodium cacodylate buffer. Pellets were routinely osmicated, dehydrated in a graded series of ethanol, and infiltrated with; and embedded in, a low viscocity epon-epoxy resin. Ultrathin sections of silver-gray interference color were cut and double-stained with uranyl acetate and lead citrate and then examined in a Zeiss 10 transmission electron microscope. Microphotographs were taken with a Gatan digital camera (Gatan, Pleasanton, Calif., USA).
# keratinocytes [4] = experiment: Cellular ROS measurement with CellROX green in keratinocytes exposed to cumene hydroperoxide; conditions: keratinocytes exposed 1 hour to 200 μM cumene hydroperoxide, peptide-treated
# Protocol: (A) Cellular ROS measurement in keratinocyte exposed 1 hour to 200 μM cumene hydroperoxide using the CellIROX green assay (×20 objective lens, scale bar=31 μm).
# (§2) (B) CellROX quantification graph with One-Way Analysis of Variance, displaying confidence interval means diamonds (green). The line across each diamond represents the group mean. The vertical span of each diamond represents the 95% confidence interval for each group. Grand sample mean is represented by a horizontal black line.
# (§3) Primary antibodies used were anti-Ubiad1 (sc-377013, Santa Cruz Biotechnology, Heidelberg, Gennany), anti-Giantin (ab24586, Abcamn, Cambridge, UK), anti-3-Nitrotyrosine (ab61392, Abcam). Alexa Fluor® coupled secondary antibodies were used (Molecular Probes, Eugene, Oreg., USA). Alexa Fluor® 594 Phalloidin probe were used for F-actin detection (A12381, molecular Probes). CellROX Green probe was used for monitoring intracellular ROS (C10444, molecular Probes). C11-BODIPY (581/591) was used for monitoring lipid peroxidation (C10445, Molecular Probes). […]
# (§4) All experiments have been repeated, the quantification of the fluorescence was performed by measuring the fluorescent intensity of the staining, which was normalized by cell area. Lipid peroxidation in cells was quantified according to manufacturer guideline with the ratios of the signal from the 590 to 510 channels. […]
# keratinocytes [5] = experiment: Lipid peroxidation (C11-BODIPY) in keratinocytes exposed to cumene hydroperoxide; conditions: keratinocytes exposed 1 hour to 200 μM cumene hydroperoxide, peptide-treated
# Protocol: (C) Lipid peroxidation in keratinocyte exposed 1 hour to 200 μM cumene hydroperoxide (reduced BODIPY in red; oxidized BODIPY in green) (×20 objective lens, scale bar=31 μm).
# as §2, with “(D) Lipid peroxidation” for “(B) CellROX”
# as §3, §4
substance,measurement,setting,value
"Ala-Val-Leu-Ala-Gly-NH2 (AVLAG-NH2) [Ubiad1 inducer peptide, artificially synthesized Ubiad1 inducer peptide]",increase of expression of Ubiad1 measured by qPCR,Ubiad1 [1],+102%
same,increase of expression of Ubiad1 measured by immunoblotting,Ubiad1 [2],+53%
same,cell morphology: mitochondrial and Golgi content of the cells,keratinocytes [3],large scale increase in the mitochondrial and Golgi content of the cells
same,resistance to ROS accumulation,keratinocytes [4],more resistant to ROS accumulation
same,resistance to lipid peroxidation,keratinocytes [5],more resistant
